Results as given in patent US20250145642A1, “BICYCLIC HETEROARENES AND METHODS OF THEIR USE” (Kineta, Inc., priority 2021, published 2025).
pIC50: −log10 of the molar value. Where a name gives a salt, the structure may show the parent alone.

Molecular target: full-length human PIKFYVE (N-terminal GST-fusion) (Homo sapiens (Human), UniProt Q9Y2I7, L932S/Q1183K/Q995L/S1033A/S696N/T998S)
Assay: PIKfyve biochemical assay (ADP-Glo Kinase assay, Carna Biosciences)
Conditions: ADP-Glo, full-length human GST-PIKFYVE, 10 μM to 3 nM; read-out: hPIKfyve IC50
Source text: (§1) PIKfyve Biochemical Assay. The biochemical PIKfyve inhibition assays were run by Carna Biosciences according to proprietary methodology based on the Promega ADP-Glo™ Kinase assay. A full-length human PIKFYVE [1-2098(end) amino acids and S696N, L932S, Q995L, T998S, S1033A and Q1183K of the protein having the sequence set forth in NCBI Reference Sequence No. NP_055855.2] was expressed as N-terminal GST-fusion protein (265 kDa) using baculovirus expression system. GST-PIKFYVE was purified by using glutathione sepharose chromatography and used in an ADP-Glo™ Kinase assay (Promega). Reactions were set up by adding the test compound solution, substrate solution, ATP solution and kinase solution, each at 4× final concentrations. Reactions were prepared with assay buffer (50 mM MOPS, 1 mM DTT, pH7.2), mixed, and incubated in black 384 well polystyrene plates for 1 hour at room temperature. ADP-Glo™ reagent was then added for 40 minutes, followed by kinase detection reagent for an additional 40 minutes. The kinase activity was evaluated by detecting relative light units on a luminescence plate reader. Samples were run in duplicate from 10 μM to 3 nM. […] IC50 values were calculated from concentration vs % inhibition curves by fitting to a four-parameter logistic curve.
as §1, with “The” for “PIKfyve Biochemical Assay. The”, “accession number” for “the protein having the sequence set forth in NCBI Reference Sequence No.”, “curve. […]” for “curve.”

Chain of full-length human PIKFYVE (N-terminal GST-fusion) (Q9Y2I7 whole entry S696N/L932S/Q995L/T998S/S1033A/Q1183K, the tested form may be a part): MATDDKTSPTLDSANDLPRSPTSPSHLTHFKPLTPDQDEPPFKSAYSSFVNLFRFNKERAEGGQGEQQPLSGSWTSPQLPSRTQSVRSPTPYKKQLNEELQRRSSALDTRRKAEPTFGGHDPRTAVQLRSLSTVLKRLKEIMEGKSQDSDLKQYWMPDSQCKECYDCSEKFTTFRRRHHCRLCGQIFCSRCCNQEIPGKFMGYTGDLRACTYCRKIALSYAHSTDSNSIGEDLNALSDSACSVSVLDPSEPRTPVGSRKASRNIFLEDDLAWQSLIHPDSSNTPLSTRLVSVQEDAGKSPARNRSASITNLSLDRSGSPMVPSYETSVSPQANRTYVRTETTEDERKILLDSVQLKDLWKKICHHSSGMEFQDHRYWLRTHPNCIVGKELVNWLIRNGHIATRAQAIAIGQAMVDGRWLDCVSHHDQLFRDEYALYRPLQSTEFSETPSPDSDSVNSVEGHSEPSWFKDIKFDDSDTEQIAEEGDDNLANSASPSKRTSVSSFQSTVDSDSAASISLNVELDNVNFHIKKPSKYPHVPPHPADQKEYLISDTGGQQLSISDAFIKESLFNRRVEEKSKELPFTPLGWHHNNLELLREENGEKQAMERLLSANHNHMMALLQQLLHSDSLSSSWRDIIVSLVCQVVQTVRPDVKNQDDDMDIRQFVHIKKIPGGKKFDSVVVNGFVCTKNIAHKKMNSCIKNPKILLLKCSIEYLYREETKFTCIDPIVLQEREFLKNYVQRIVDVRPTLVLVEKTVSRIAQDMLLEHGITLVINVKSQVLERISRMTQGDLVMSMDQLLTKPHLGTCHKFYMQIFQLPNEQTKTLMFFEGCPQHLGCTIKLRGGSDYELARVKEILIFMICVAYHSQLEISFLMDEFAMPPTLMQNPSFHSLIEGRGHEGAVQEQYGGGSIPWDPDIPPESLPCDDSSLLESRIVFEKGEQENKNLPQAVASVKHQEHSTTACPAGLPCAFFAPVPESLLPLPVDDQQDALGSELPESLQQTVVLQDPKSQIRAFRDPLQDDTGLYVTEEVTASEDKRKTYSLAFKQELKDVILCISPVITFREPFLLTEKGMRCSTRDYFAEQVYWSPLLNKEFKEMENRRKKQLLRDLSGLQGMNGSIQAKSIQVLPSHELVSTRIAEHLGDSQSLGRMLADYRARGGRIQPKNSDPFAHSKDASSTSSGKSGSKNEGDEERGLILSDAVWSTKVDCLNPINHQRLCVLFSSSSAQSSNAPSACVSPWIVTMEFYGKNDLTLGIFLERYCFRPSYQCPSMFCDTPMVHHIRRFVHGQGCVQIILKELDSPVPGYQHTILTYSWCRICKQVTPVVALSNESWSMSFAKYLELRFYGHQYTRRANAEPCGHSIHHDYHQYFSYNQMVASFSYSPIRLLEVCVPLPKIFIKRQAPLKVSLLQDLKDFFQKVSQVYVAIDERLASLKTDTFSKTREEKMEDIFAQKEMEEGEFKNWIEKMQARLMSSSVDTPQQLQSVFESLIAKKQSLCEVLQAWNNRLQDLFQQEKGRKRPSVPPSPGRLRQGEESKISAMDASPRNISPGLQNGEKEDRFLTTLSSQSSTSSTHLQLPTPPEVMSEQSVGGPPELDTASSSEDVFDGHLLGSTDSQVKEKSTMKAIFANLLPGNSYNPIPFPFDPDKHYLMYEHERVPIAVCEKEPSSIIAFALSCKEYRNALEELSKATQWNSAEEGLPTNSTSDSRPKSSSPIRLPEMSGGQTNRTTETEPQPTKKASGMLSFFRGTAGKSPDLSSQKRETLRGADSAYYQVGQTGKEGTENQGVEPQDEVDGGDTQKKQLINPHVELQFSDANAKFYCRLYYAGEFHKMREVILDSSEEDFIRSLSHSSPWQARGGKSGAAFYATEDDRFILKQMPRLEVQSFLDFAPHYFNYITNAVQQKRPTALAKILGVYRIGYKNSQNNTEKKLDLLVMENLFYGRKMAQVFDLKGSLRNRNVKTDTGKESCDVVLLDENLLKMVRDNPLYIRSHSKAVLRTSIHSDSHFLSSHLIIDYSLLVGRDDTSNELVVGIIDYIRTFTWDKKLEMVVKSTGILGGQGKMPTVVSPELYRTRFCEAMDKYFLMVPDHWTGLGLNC

| Compound | pIC50 |
| --- | --- |
| c1ccc(-c2nccc(-c3nc(N4CCOCC4)nc4c3CCN4c3cccnc3)n2)cc1 [Compound 124, 4-(4-(2-phenylpyrimidin-4-yl)-7-(pyridin-3-yl)-6,7-dihydro-5H-pyrrolo[2,3-d]pyrimidin-2-yl)morpholine hydrochloride] | 7.00 to 8.00 |
| CC(C)(C)OC(=O)N1CC(COc2nc(N3CCOCC3)nc3c2CCN3c2cccnc2)C1 [Compound 37, tert-butyl 3-(((2-morpholino-7-(pyridin-3-yl)-6,7-dihydro-5H-pyrrolo[2,3-d]pyrimidin-4-yl)oxy)methyl)azetidine-1-carboxylate] | 6.00 to 7.00 |
| CN1CC(COc2nc(N3CCOCC3)nc3c2CCN3c2cccnc2)C1 [Compound 39, 4-(4-((1-methylazetidin-3-yl)methoxy)-7-(pyridin-3-yl)-6,7-dihydro-5H-pyrrolo[2,3-d]pyrimidin-2-yl)morpholine] | 5.00 to 6.00 |
| N#Cc1nc(N2CCOCC2)nc2c1CCN2c1ccccc1 [Compound 47, 2-morpholino-7-phenyl-6,7-dihydro-5H-pyrrolo[2,3-d]pyrimidine-4-carbonitrile] | 6.00 to 7.00 |
| Fc1cccc(N2CCc3c(-c4ccncc4)nc(N4CCOCC4)nc32)c1 [Compound 104, 4-(7-(3-fluorophenyl)-4-(pyridin-4-yl)-6,7-dihydro-5H-pyrroolo[2,3-d]pyrimidin-2-yl)morpholine] | > 8.00 |
| CN1CCC(c2nc(N3CCOCC3)nc3c2CCN3c2ccccc2)C1 (centres unmarked) [Compound 121, 4-(4-(1-methylpyrrolidin-3-yl)-7-phenyl-6,7-dihydro-H-pyrrolo[2,3-d]pyrimidin-2-yl)morpholine] | 6.00 to 7.00 |
| COc1nc(N2CCOCC2)nc2c1CCN2c1ccccc1 [Compound 48, 4-(4-methoxy-7-phenyl-6,7-dihydro-5H-pyrrolo[2,3-d]pyrimidin-2-yl)morpholine] | 7.00 to 8.00 |
| c1cncc(COc2nc(N3CCOCC3)nc3c2CCN3c2cccnc2)c1 [Compound 32, 4-(7-(pyridin-3-yl)-4-(pyridin-3-ylmethoxy)-6,7-dihydro-5H-pyrrolo[2,3-d]pyrimidin-2-yl)morpholine] | 6.00 to 7.00 |
| c1ccc(N2CCc3c(OCCC4CCCO4)nc(N4CCOCC4)nc32)cc1 (centres unmarked) [Compound 30, 4-(7-phenyl-4-(2-(tetrahydrofuran-2-yl)ethoxy)-6,7-dihydro-5H-pyrrolo[2,3-d]pyrimidin-2-yl)morpholine] | 6.00 to 7.00 |
| c1ccc(N2CCc3c(C4CCOCC4)nc(N4CCOCC4)nc32)cc1 [Compound 86, 4-(7-phenyl-4-(tetrahydro-2H-pyran-4-yl)-6,7-dihydro-5H-pyrrolo[2,3-d]pyrimidin-2-yl)morpholine] | 6.00 to 7.00 |
| c1ccc(N2CCc3c(C4CCOC4)nc(N4CCOCC4)nc32)cc1 (centres unmarked) [Compound 87, 4-(7-phenyl-4-(tetrahydrofuran-3-yl)-6,7-dihydro-5H-pyrrolo[2,3-d]pyrimidin-2-yl)morpholine] | 7.00 to 8.00 |
| c1ccc(N2CCc3c(OCc4cccnn4)nc(N4CCOCC4)nc32)cc1 [Compound 27, 4-(7-phenyl-4-(pyridazin-3-ylmethoxy)-6,7-dihydro-5H-pyrrolo[2,3-d]pyrimidin-2-yl)morpholine] | 7.00 to 8.00 |
| CN1CCCC(COc2nc(N3CCOCC3)nc3c2CCN3c2cncnc2)C1 (centres unmarked) [Compound 16, 4-(4-((1-methylpiperidin-3-yl)methoxy)-7-(pyrimidin-5-yl)-6,7-dihydro-5H-pyrrolo[2,3-d]pyrimidin-2-yl)morpholine] | 5.00 to 6.00 |
| COc1cccc(-c2c[nH]c3c(-c4ccncc4)nc(N4CCOCC4)nc23)n1 [Compound 139, 4-(7-(6-methoxypyridin-2-yl)-4-(pyridin-4-yl)-5H-pyrrolo[3,2-d]pyrimidin-2-yl)morpholine] | 7.00 to 8.00 |
| c1cncc(N2CCc3c(OCC4CNC4)nc(N4CCOCC4)nc32)c1 [Compound 38, 4-(4-(azetidin-3-ylmethoxy)-7-(pyridin-3-yl)-6,7-dihydro-5H-pyrrolo[2,3-d]pyrimidin-2-yl)morpholine] | 6.00 to 7.00 |
| c1ccc(Oc2nc(N3CCOCC3)nc3c2CCN3c2cccnc2)nc1 [Compound 51, 4-(4-(pyridin-2-yloxy)-7-(pyridin-3-yl)-6,7-dihydro-5H-pyrrolo[2,3-d]pyrimidin-2-yl)morpholine] | 6.00 to 7.00 |

| Compound | pIC50 |
| --- | --- |
| c1cc(-c2nc(N3CCOCC3)nc3c2CCN3C2CCOCC2)ccn1 [Compound 95, 4-(4-(pyridin-4-yl)-7-(tetrahydro-2H-pyran-4-yl)-6,7-dihydro-5H-pyrrolo[2,3-d]pyrimidin-2-yl)morpholine] | 6.00 to 7.00 |
| c1cncc(N2CCc3c(-c4ccnnc4)nc(N4CCOCC4)nc32)c1 [Compound 97] | 7.00 to 8.00 |
| COc1cccc(C2CC2c2nc(N3CCOCC3)nc3c2CCN3c2cccnc2)c1 (centres unmarked) [Compound 122, 4-(4-(2-(3-methoxyphenyl)cyclopropyl)-7-(pyridin-3-yl)-6,7-dihydro-5H-pyrrolo[2,3-d]pyrimidin-2-yl)morpholine] | 6.00 to 7.00 |
| c1ccc(-c2nccc(-c3nc(N4CCOCC4)nc4c3CCN4c3ccncc3)n2)cc1 [Compound 125, 4-(4-(2-phenylpyrimidin-4-yl)-7-(pyridin-4-yl)-6,7-dihydro-5H-pyrrolo[2,3-d]pyrimidin-2-yl)morpholine] | 7.00 to 8.00 |
| c1ccc(N2CCc3c(Oc4ccccn4)nc(N4CCOCC4)nc32)cc1 [Compound 49, 4-(7-phenyl-4-(pyridin-2-yloxy)-6,7-dihydro-5H-pyrrolo[2,3-d]pyrimidin-2-yl)morpholine] | 7.00 to 8.00 |
| c1cncc(-c2nc(N3CCOCC3)nc3c2CCN3c2ccc3c(c2)OCO3)c1 [Compound 102, 4-(7-(benzo[d][1,3]dioxol-5-yl)-4-(pyridin-3-yl)-6,7-dihydro-5H-pyrrolo[2,3-d]pyrimidin-2-yl)morpholine] | 7.00 to 8.00 |
| c1ccc(-n2ccc(N3CCc4c(Oc5cccnc5)nc(N5CCOCC5)nc43)n2)cc1 [Compound 70, 4-(7-(1-phenyl-1H-pyrazol-3-yl)-4-(pyridin-3-yloxy)-6,7-dihydro-5H-pyrrolo[2,3-d]pyrimidin-2-yl)morpholine] | 5.00 to 6.00 |
| c1ccc(N2CCc3c(Oc4cccnc4)nc(N4CCOCC4)nc32)cc1 [Compound 53, 4-(7-phenyl-4-(pyridin-3-yloxy)-6,7-dihydro-5H-pyrrolo[2,3-d]pyrimidin-2-yl)morpholine] | 7.00 to 8.00 |
| CN1CCCC(COc2nc(N3CCOCC3)nc3c2CCN3c2ccccc2)C1 (centres unmarked) [Compound 28, 4-(4-((1-methylpiperidin-3-yl)methoxy)-7-phenyl-6,7-dihydro-5H-pyrrolo[2,3-d]pyrimidin-2-yl)morpholine.formate] | 6.00 to 7.00 |
| c1cncc(N2CCc3c(-c4ccoc4)nc(N4CCOCC4)nc32)c1 [Compound 88, 4-(4-(furan-3-yl)-7-(pyridin-3-yl)-6,7-dihydro-6H-pyrrolo[2,3-d]pyrimidin-2-yl)morpholine] | 7.00 to 8.00 |
| 4-(6-methyl-7-(pyridin-4-yl)-4-(tetrahydrofuran-3-yl)-6,7-dihydro-5H-pyrrolo[2,3-d]pyrimidin-2-yl)morpholine [Compound 98] | 7.00 to 8.00 |
| CN1CCCC(CCOc2nc(N3CCOCC3)nc3c2CCN3c2cccnc2)C1 (centres unmarked) [Compound 11, 4-(4-(2-(1-methylpiperidin-3-yl)ethoxy)-7-(pyridin-3-yl)-6,7-dihydro-5H-pyrrolo[2,3-d]pyrimidin-2-yl)morpholine] | 7.00 to 8.00 |
| 4-(4-((oxetan-3-yloxy)methyl)-7-(pyridin-3-yl)-6,7-dihydro-5H-pyrrolo[2,3-d]pyrimidin-2-yl)morpholine [Compound 65] | 5.00 to 6.00 |
| CC(C)(C)OC(=O)N1CCC(COc2nc(N3CCOCC3)nc3c2CCN3c2cccnc2)C1 (centres unmarked) [Compound 33, tert-butyl 3-(((2-morpholino-7-(pyridin-3-yl)-6,7-dihydro-4H-pyrrolo[2,3-d]pyrimidin-4-yl)oxy)methyl)pyrrolidine-1-carboxylate] | 6.00 to 7.00 |
| c1ccc(N2CCc3c(-c4cnco4)nc(N4CCOCC4)nc32)cc1 [Compound 101, 4-(4-(oxazol-5-yl)-7-phenyl-6,7-dihydro-5H-pyrrolo[2,3-d]pyrimidin-2-yl)morpholine] | 7.00 to 8.00 |
| O=c1ccccn1-c1nc(N2CCOCC2)nc2c1CCN2c1cccnc1 [Compound 52, 1-(2-morpholino-7-(pyridin-3-yl)-6,7-dihydro-5H-pyrrolo[2,3-d]pyrimidin-4-yl)pyridin-2(1H)-one] | 5.00 to 6.00 |
